Laboratory results as given in paper PMC5421814, “A Sequence in the loop domain of hepatitis C virus E2 protein identified in silico as crucial for the selective binding to human CD81” (PLoS ONE, 2017).
Read-outs that look alike come from different tables or passages of the source. Residues, ends and D or L forms follow the SMILES beside them.

T1: p_H-CD81 (human)
T1 construct: human CD81, head domain of the large extracellular loop, residues 167-188; Immobilised on a CM-5 chip by amine coupling; also called human CD81 peptide; receptor peptide from the head domain region of human CD81; source: synthetic peptide, bought: GeneMark (GMbiolab Co., Ltd., Taiwan)
T1 peptide: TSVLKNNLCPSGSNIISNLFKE

T2: p_R-CD81 (rat)
T2 construct: rat CD81, head domain of the large extracellular loop, residues 167-188; Immobilised on a CM-5 chip by amine coupling; also called rat CD81 peptide; receptor peptide from the head domain region of rat CD81; source: synthetic peptide, bought: GeneMark (GMbiolab Co., Ltd., Taiwan)
T2 peptide: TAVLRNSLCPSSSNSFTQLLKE

B1: p_E2-site1 (peptide)
peptide: INSTALNCNESLNTGWLAGLFYQ
notes: hepatitis C virus envelope glycoprotein E2, residues 422-444 of the polyprotein; also called E2-site1 peptide; E2-s1; source: synthetic peptide, bought: GeneMark (GMbiolab Co., Ltd., Taiwan)
B2: p_E2-site2 (peptide)
peptide: RSGAPTYSWGANDTDVF
notes: hepatitis C virus envelope glycoprotein E2, residues 521-537 of the polyprotein; also called E2-site2 peptide; E2-s2; source: synthetic peptide, bought: GeneMark (GMbiolab Co., Ltd., Taiwan)

Columns and labels:
[1] = target: T3, p_H-CD81 (human CD81 peptide) (Homo sapiens, UniProt P60033); assay: SPR binding to immobilized human CD81 peptide; conditions: for Kd: Biacore T200, CM-5 chip, p_H-CD81 immobilized (~1000 RU), flow 30 µL/min 2 min, steady-state isotherm, monovalent model, average of three measurements ± standard deviation; for SPR response / binding (in words): various concentrations over immobilized human CD81 peptide
T3 construct: ^167[…]^188; purchased GeneMark (GMbiolab Co., Ltd., Taiwan); host or cells: chemical synthesis
Source text: (§1) Based on the in silico analysis, peptides were designed for experimental validations of the binding site predictions. Four peptides (p_E2-site1, p_E2-site2, p_H-CD81 and p_R-CD81) designed according to the ZDOCK program and MM/PBSA binding free energy calculations were chemically synthesized and purchased from GeneMark (GMbiolab Co., Ltd., Taiwan). The human and rat CD81 peptides, p_H-CD81 and p_R-CD81, and the HCV E2 peptides, p_E2-site1 and p_E2-site2, were derived from the results of molecular docking between ligand E2 and receptor CD81. Control and HCV E2 mutant peptides were also synthesized (S1 Table) for the SPR and cell based binding measurements to rule out the possible non-specific bindings in the investigations. The HCV E2 mutant peptides were designed based on the mutation studies.
(§2) SPR experiments were conducted to measure the binding efficiency of the designed ligand and receptor peptides. The SPR measurements were performed using a Biacore T200 workstation (GE Healthcare, USA). Peptides p_H-CD81 and p_R-CD81 were diluted to a concentration of 7.5 μM in a 10 mM sodium acetate buffer at pH 4.0 and immobilized onto a CM-5 sensor chip using amine coupling (EDC-NHS) for 5 min at a flow speed of 5 μL/min. Approximately 1000 response units (RU) of p_H-CD81 and p_R-CD81 were immobilized on the chip. In this study, data on the kinetics and affinity of ligand-receptor binding were obtained by flowing several different concentrations of the p_E2-site1 and p_E2-site2 over the chip sequentially at a flow rate of 30 µL/min for 2 min. The response was measured at two time points, 0 and 120 sec, to obtain information on the rate of CD81 peptides association with and dissociation from the p-E2-site1 and p-E2-site2 peptides. Equilibrium binding curves were generated and fitted using a monovalent binding model for each peptide to determine the KD of the binding of E2 peptides (p_E2-site1 and p_E2-site2) with receptor CD81 peptides (p_H-CD81 and p_R-CD81).

[2] = target: T4, p_R-CD81 (rat CD81 peptide) (Rattus norvegicus, UniProt Q62745); assay: SPR binding to immobilized rat CD81 peptide; conditions: for Kd: steady-state isotherm; for SPR response / binding (in words): various concentrations over immobilized rat CD81 peptide
T4 construct: ^167[…]^188; purchased GeneMark (GMbiolab Co., Ltd., Taiwan); host or cells: chemical synthesis
Source text: as §1, §2

p_H-CD81 = target: T1, p_H-CD81; assay: SPR; Biacore T200; p_H-CD81 or p_R-CD81 (about 1000 RU) immobilised on a CM-5 chip by amine coupling; E2 peptides flowed over at several concentrations, 30 µL/min for 2 min; equilibrium binding curves fitted with a monovalent binding model; conditions: both partners purified
p_R-CD81 = target: T2, p_R-CD81; assay: as above; conditions: both partners purified

| Molecule | Kd [1] [µM] | SPR response / binding (in words) [1] | SPR response / binding (in words) [2] | Kd (p_H-CD81) [µM] | Kd (p_R-CD81) [µM] | further results |
| --- | --- | --- | --- | --- | --- | --- |
| CC[C@H](C)[C@H](N)C(=O)N[C@@H](CC(N)=O)C(=O)N[C@@H](CO)C(=O)N[C@H](C(=O)N[C@@H](C)C(=O)N[C@@H](CC(C)C)C(=O)N[C@@H](CC(N)=O)C(=O)N[C@@H](CS)C(=O)N[C@@H](CC(N)=O)C(=O)N[C@@H](CCC(=O)O)C(=O)N[C@@H](CO)C(=O)N[C@@H](CC(C)C)C(=O)N[C@@H](CC(N)=O)C(=O)N[C@H](C(=O)NCC(=O)N[C@@H](Cc1c[nH]c2ccccc12)C(=O)N[C@@H](CC(C)C)C(=O)N[C@@H](C)C(=O)NCC(=O)N[C@@H](CC(C)C)C(=O)N[C@@H](Cc1ccccc1)C(=O)N[C@@H](Cc1ccc(O)cc1)C(=O)N[C@@H](CCC(N)=O)C(=O)O)[C@@H](C)O)[C@@H](C)O [p_E2-site1] (H-INSTALNCNESLNTGWLAGLFYQ-OH) | 7.96 ± 1.7 |  |  |  |  | Kd ([2]; Biacore T200, CM-5 chip, p_R-CD81 immobilized (~1000 RU), flow 30 µL/min 2 min, monovalent model, average of three measurements ± standard deviation, read-out: KD): 13.8 ± 2.46 µM |
| CC(C)[C@H](NC(=O)[C@H](CC(=O)O)NC(=O)[C@@H](NC(=O)[C@H](CC(=O)O)NC(=O)[C@H](CC(N)=O)NC(=O)[C@H](C)NC(=O)CNC(=O)[C@H](Cc1c[nH]c2ccccc12)NC(=O)[C@H](CO)NC(=O)[C@H](Cc1ccc(O)cc1)NC(=O)[C@@H](NC(=O)[C@@H]1CCCN1C(=O)[C@H](C)NC(=O)CNC(=O)[C@H](CO)NC(=O)[C@@H](N)CCCNC(=N)N)[C@@H](C)O)[C@@H](C)O)C(=O)N[C@@H](Cc1ccccc1)C(=O)O [p_E2-site2] (H-RSGAPTYSWGANDTDVF-OH) | 1.07 ± 0.09 |  |  |  |  | Kd ([2]; p_R-CD81 immobilized, value printed in Fig 6 plot, read-out: KD (printed in the picture, Fig 6)): 6.4 µM |
| CPLNGSTVYGHLRHCLSCSGTMVKF [p_random-25, control (random) peptide] |  | not significantly increased | not significantly increased |  |  |  |
| SENHLRHCLSCSKCRKEM [p_random-18, control (random) peptide] |  | not significantly increased | not significantly increased |  |  |  |
| B1 |  |  |  | 7.96 | 13.8 |  |
| B2 |  |  |  | 1.07 | 6.38 |  |
